# According to article PMC7413254 (Nature Communications, 2020):
# “And” between values parts separate entries of the source, which are not always exact repeats. Equal entries are not always repeated. Where two headings read alike, the source gives them in different places.
# What was measured:
# [1] = test system: PfCRT; test: Influx of VF-6 via PfCRT into the oocyte, solutes tested as potential co-substrates; format: cell-based, Plasmodium falciparum; parameters: key: X: Compounds that have been tested as potential co-substrates but are not required for influx of VF-6 via PfCRT into the oocyte; settings: X marks the solute
# [2] = biological target: PfCRT^Ecu1110 (Plasmodium falciparum, UniProt Q9N623, A220S/I356L/K76T/N326D); test: cell-based; settings: trans-inhibition, treatment 45 mM
# Chain of PfCRT^Ecu1110 (Q9N623 whole entry A220S/I356L/K76T/N326D, canonical isoform): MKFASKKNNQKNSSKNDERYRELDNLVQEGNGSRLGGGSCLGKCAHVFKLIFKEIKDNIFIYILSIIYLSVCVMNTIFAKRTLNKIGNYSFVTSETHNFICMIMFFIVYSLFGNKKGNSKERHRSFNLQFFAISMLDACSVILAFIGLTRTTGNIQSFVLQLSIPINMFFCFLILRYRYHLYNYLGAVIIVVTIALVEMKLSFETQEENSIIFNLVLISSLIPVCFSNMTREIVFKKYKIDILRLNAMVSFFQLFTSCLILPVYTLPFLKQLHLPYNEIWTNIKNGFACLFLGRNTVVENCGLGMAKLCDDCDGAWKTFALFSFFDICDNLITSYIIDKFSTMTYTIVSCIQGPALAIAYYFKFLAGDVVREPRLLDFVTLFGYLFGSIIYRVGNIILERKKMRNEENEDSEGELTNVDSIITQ
# Protocol: (§1) The characterisation of [^3H]VF-6 transport via 23 different field and laboratory-derived isoforms of PfCRT was undertaken with oocytes two days post-cRNA-injection (Figs. 3a–j, 4; Supplementary Fig. 2). The oocytes were injected with 25 nL of ND96 buffer (pH 5.5) supplemented with [^3H]VF-6 and unlabelled VF-6 to achieve estimated intracellular concentrations of 1.4 and 200 μM, respectively. Ten oocytes that had resealed at the injection site were transferred to a 5 mL polystyrene round bottom tube (In Vitro Technologies) and washed with 3.5 mL of ND96 buffer before being transferred to separate wells of a white 96-well plate (PerkinElmer). This treatment served to establish the amount of radioactivity within the oocytes immediately prior to the commencement of the transport assay. Another 10 resealed oocytes were transferred to a 5 mL tube and washed with 3.5 mL of ND96 buffer. […] The assay was terminated by removing the reaction buffer with a pipette and washing the oocytes twice with 3.5 mL of ice-cold ND96 buffer. Each oocyte was transferred to a separate well of a white 96-well plate. The oocytes were lysed by the addition of 20 μL of 10% (w/v) SDS and overnight incubation at room temperature. The lysed oocyte was then combined with 150 μL of MicroScint-40 microscintillant (PerkinElmer), the plate covered with a TopSeal-A (PerkinElmer), and the radioactivity measured with a MicroBeta^2 microplate liquid scintillation analyser (PerkinElmer). VF-6 transport was calculated by subtracting the amount of radioactivity (measured in counts per minute) present within the oocytes at the end of the incubation from that measured in the oocytes sampled immediately before the commencement of the assay. The pH-dependence of transport (Fig. 3c) was determined by injecting the oocytes with [^3H]VF-6 suspended in 25 nL ND96 buffer adjusted to pH 5.0, 5.5, 6.0 or 7.0, which corresponded to the injection of 2.5–250 fmol of H^+. The dependence of [^3H]VF-6 transport on Na^+ or Cl^− was examined by injecting the oocytes with [^3H]VF-6 suspended in the control ND96 buffer (pH 5.5) or a version of this buffer that lacked either Na^+ or Cl^− (Supplementary Fig. 2). […] The dependence of peptide transport on Ca^2+ was determined by injecting the oocytes with [^3H]VF-6 suspended in ND96 buffers that contained different concentrations of Ca^2+ (0–5 mM; Supplementary Fig. 2). […] The dependence of PfCRT-mediated transport on the membrane potential was examined by using (1) Na^+ ionophore III in conjunction with the Na^+ gradients listed in Supplementary Data 7 and (2) Cl^− ionophore III in conjunction with the Cl^− gradients listed in Supplementary Data 7 to clamp the membrane potential of the oocyte from −80 to +80 mV. […] The kinetic parameters for VF-6 transport via different isoforms of PfCRT (Figs. 3e and 4a) were determined in SigmaPlot Windows Version 11.0 by a least-squares fit of the Michaelis–Menten equation to the data.
# (§2) A subset of assays measured the ability of solutes known to interact with PfCRT to either cis-inhibit, trans-inhibit or trans-stimulate [^3H]VF-6 transport. These experiments involved adding these solutes to either the cis- or trans-side of the membrane relative to [^3H]VF-6. […] At least five independent experiments were performed (on different days and using oocytes from different frogs), and within each experiment measurements were made from ten oocytes per treatment.
# [3] = biological target: PfCRT^Dd2 (Plasmodium falciparum, UniProt Q9N623, A220S/I356T/K76T/M74I/N326S/N75E/Q271E/R371I); test: cell-based; settings: trans-inhibition, treatment 45 mM
# Chain of PfCRT^Dd2 (Q9N623 whole entry A220S/I356T/K76T/M74I/N326S/N75E/Q271E/R371I): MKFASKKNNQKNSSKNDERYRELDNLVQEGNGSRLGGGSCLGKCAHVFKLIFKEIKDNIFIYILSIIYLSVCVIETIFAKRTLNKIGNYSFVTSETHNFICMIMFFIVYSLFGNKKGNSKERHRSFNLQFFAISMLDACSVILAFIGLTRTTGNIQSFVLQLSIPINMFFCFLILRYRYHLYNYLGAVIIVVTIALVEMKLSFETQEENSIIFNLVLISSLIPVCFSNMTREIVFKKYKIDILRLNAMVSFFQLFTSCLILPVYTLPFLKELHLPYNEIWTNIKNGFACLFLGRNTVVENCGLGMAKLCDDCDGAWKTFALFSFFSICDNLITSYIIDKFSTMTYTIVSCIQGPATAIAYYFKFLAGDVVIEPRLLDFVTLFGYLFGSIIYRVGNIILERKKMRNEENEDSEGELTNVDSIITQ
# Protocol: as §1, §2
# [4] = biological target: PfCRT^3D7 (Plasmodium falciparum, UniProt Q8IBZ9); test: cell-based
# Chain of PfCRT^3D7 (Q8IBZ9 59-398): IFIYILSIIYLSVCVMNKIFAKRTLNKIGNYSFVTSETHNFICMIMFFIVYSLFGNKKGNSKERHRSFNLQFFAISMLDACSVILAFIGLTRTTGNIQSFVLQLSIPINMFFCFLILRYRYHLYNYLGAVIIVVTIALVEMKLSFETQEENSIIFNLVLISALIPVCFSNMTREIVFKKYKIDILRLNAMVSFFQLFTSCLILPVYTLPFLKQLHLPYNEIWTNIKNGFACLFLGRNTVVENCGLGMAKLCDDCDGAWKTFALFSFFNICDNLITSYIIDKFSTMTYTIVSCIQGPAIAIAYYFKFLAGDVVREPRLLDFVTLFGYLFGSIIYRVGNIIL
# Protocol: as §1, §2
# [5] = trans-inhibition, treatment 45 mM, Experiment 1
# [6] = trans-inhibition, treatment 45 mM, Experiment 2
# [7] = trans-inhibition, treatment 45 mM, Experiment 3
# [8] = trans-inhibition, treatment 45 mM, Experiment 4
# [9] = trans-inhibition, treatment 45 mM, Experiment 5
compound,measurement,setting,value
CC(C)[C@H](N)C(=O)O [L-valine],Compounds that have been tested as potential co-substrates but are not required for influx of VF-6 via PfCRT into the oocyte,[1],X
CSCC[C@H](N)C(=O)O [L-methionine],Compounds that have been tested as potential co-substrates but are not required for influx of VF-6 via PfCRT into the oocyte,[1],X
NC(=O)C[C@H](N)C(=O)O [L-asparagine],Compounds that have been tested as potential co-substrates but are not required for influx of VF-6 via PfCRT into the oocyte,[1],X
DPVN [VF-6-derived peptide],"[3H]VF-6 transport, PfCRTEcu1110 (% PfCRT3D7 control)",[2]; Experiment 1,9.56 % PfCRT3D7 control
same,"[3H]VF-6 transport, PfCRTEcu1110 (% PfCRT3D7 control)",[2]; Experiment 2,9.46 % PfCRT3D7 control
same,"[3H]VF-6 transport, PfCRTEcu1110 (% PfCRT3D7 control)",[2]; Experiment 3,8.39 % PfCRT3D7 control
same,"[3H]VF-6 transport, PfCRTEcu1110 (% PfCRT3D7 control)",[2]; Experiment 4,9.45 % PfCRT3D7 control
same,"[3H]VF-6 transport, PfCRTEcu1110 (% PfCRT3D7 control)",[2]; Experiment 5,9.93 % PfCRT3D7 control
same,"[3H]VF-6 transport, PfCRTDd2 (% PfCRT3D7 control)",[3]; Experiment 1,7.83 % PfCRT3D7 control
same,"[3H]VF-6 transport, PfCRTDd2 (% PfCRT3D7 control)",[3]; Experiment 2,7.93 % PfCRT3D7 control
same,"[3H]VF-6 transport, PfCRTDd2 (% PfCRT3D7 control)",[3]; Experiment 3,7.34 % PfCRT3D7 control
same,"[3H]VF-6 transport, PfCRTDd2 (% PfCRT3D7 control)",[3]; Experiment 4,7.75 % PfCRT3D7 control
same,"[3H]VF-6 transport, PfCRTDd2 (% PfCRT3D7 control)",[3]; Experiment 5,8.53 % PfCRT3D7 control
same,"[3H]VF-6 transport, PfCRT3D7 (% PfCRT3D7 control)",[4],26.43 % PfCRT3D7 control and 27.43 % PfCRT3D7 control and 23.23 % PfCRT3D7 control and 20.32 % PfCRT3D7 control and 20.85 % PfCRT3D7 control
N=C(N)NCCC[C@H](N)C(=O)O [L-arginine],Compounds that have been tested as potential co-substrates but are not required for influx of VF-6 via PfCRT into the oocyte,[1],X
N[C@@H](Cc1ccccc1)C(=O)O [L-phenylalanine],Compounds that have been tested as potential co-substrates but are not required for influx of VF-6 via PfCRT into the oocyte,[1],X
NCCCC[C@H](N)C(=O)O [L-lysine],Compounds that have been tested as potential co-substrates but are not required for influx of VF-6 via PfCRT into the oocyte,[1],X
VDPVN [VF-6-derived peptide],"[3H]VF-6 transport, PfCRTEcu1110 (% PfCRT3D7 control)",[2]; Experiment 1,6.34 % PfCRT3D7 control
same,"[3H]VF-6 transport, PfCRTEcu1110 (% PfCRT3D7 control)",[2]; Experiment 2,5.74 % PfCRT3D7 control
same,"[3H]VF-6 transport, PfCRTEcu1110 (% PfCRT3D7 control)",[2]; Experiment 3,6.34 % PfCRT3D7 control
same,"[3H]VF-6 transport, PfCRTEcu1110 (% PfCRT3D7 control)",[2]; Experiment 4,6.94 % PfCRT3D7 control
same,"[3H]VF-6 transport, PfCRTEcu1110 (% PfCRT3D7 control)",[2]; Experiment 5,6.25 % PfCRT3D7 control
same,"[3H]VF-6 transport, PfCRTDd2 (% PfCRT3D7 control)",[3]; Experiment 1,7.28 % PfCRT3D7 control
same,"[3H]VF-6 transport, PfCRTDd2 (% PfCRT3D7 control)",[3]; Experiment 2,7.49 % PfCRT3D7 control
same,"[3H]VF-6 transport, PfCRTDd2 (% PfCRT3D7 control)",[3]; Experiment 3,7.54 % PfCRT3D7 control
same,"[3H]VF-6 transport, PfCRTDd2 (% PfCRT3D7 control)",[3]; Experiment 4,7.59 % PfCRT3D7 control
same,"[3H]VF-6 transport, PfCRTDd2 (% PfCRT3D7 control)",[3]; Experiment 5,7.33 % PfCRT3D7 control
same,"[3H]VF-6 transport, PfCRT3D7 (% PfCRT3D7 control)",[4]; [5],20.24 % PfCRT3D7 control
same,"[3H]VF-6 transport, PfCRT3D7 (% PfCRT3D7 control)",[4]; [6],19.6 % PfCRT3D7 control
same,"[3H]VF-6 transport, PfCRT3D7 (% PfCRT3D7 control)",[4]; [7],22.64 % PfCRT3D7 control
same,"[3H]VF-6 transport, PfCRT3D7 (% PfCRT3D7 control)",[4]; [8],22.05 % PfCRT3D7 control
same,"[3H]VF-6 transport, PfCRT3D7 (% PfCRT3D7 control)",[4]; [9],19.48 % PfCRT3D7 control
C[C@@H](O)[C@H](N)C(=O)O [L-threonine],Compounds that have been tested as potential co-substrates but are not required for influx of VF-6 via PfCRT into the oocyte,[1],X
DPVNF [VF-6-derived peptide],"[3H]VF-6 transport, PfCRTEcu1110 (% PfCRT3D7 control)",[2]; Experiment 1,7.36 % PfCRT3D7 control
same,"[3H]VF-6 transport, PfCRTEcu1110 (% PfCRT3D7 control)",[2]; Experiment 2,8.38 % PfCRT3D7 control
same,"[3H]VF-6 transport, PfCRTEcu1110 (% PfCRT3D7 control)",[2]; Experiment 3,7.23 % PfCRT3D7 control
same,"[3H]VF-6 transport, PfCRTEcu1110 (% PfCRT3D7 control)",[2]; Experiment 4,8.43 % PfCRT3D7 control
same,"[3H]VF-6 transport, PfCRTEcu1110 (% PfCRT3D7 control)",[2]; Experiment 5,7.77 % PfCRT3D7 control
same,"[3H]VF-6 transport, PfCRTDd2 (% PfCRT3D7 control)",[3]; Experiment 1,9.35 % PfCRT3D7 control
same,"[3H]VF-6 transport, PfCRTDd2 (% PfCRT3D7 control)",[3]; Experiment 2,8.35 % PfCRT3D7 control
same,"[3H]VF-6 transport, PfCRTDd2 (% PfCRT3D7 control)",[3]; Experiment 3,9.55 % PfCRT3D7 control
same,"[3H]VF-6 transport, PfCRTDd2 (% PfCRT3D7 control)",[3]; Experiment 4,8.26 % PfCRT3D7 control
same,"[3H]VF-6 transport, PfCRTDd2 (% PfCRT3D7 control)",[3]; Experiment 5,9.66 % PfCRT3D7 control
same,"[3H]VF-6 transport, PfCRT3D7 (% PfCRT3D7 control)",[4]; [5],21.64 % PfCRT3D7 control
same,"[3H]VF-6 transport, PfCRT3D7 (% PfCRT3D7 control)",[4]; [6],22.13 % PfCRT3D7 control
same,"[3H]VF-6 transport, PfCRT3D7 (% PfCRT3D7 control)",[4]; [7],19.38 % PfCRT3D7 control
same,"[3H]VF-6 transport, PfCRT3D7 (% PfCRT3D7 control)",[4]; [8],18.32 % PfCRT3D7 control
same,"[3H]VF-6 transport, PfCRT3D7 (% PfCRT3D7 control)",[4]; [9],19.24 % PfCRT3D7 control
NC(=O)CC[C@H](N)C(=O)O [L-glutamine],Compounds that have been tested as potential co-substrates but are not required for influx of VF-6 via PfCRT into the oocyte,[1],X
